# Results taken from patent US12534456B2, “Heterocyclyl pyridines as novel fungicides” (Bayer Aktiengesellschaft, priority 2020, dated 2026).
# Assay: physchem
# Format: physicochemical
# Settings: not given
# Experimental: Measurement of Log P values as provided herein was performed according to EEC directive 79/831 Annex V.A8 by HPLC (High Performance Liquid Chromatography) on reversed phase columns with the following methods: • ^[a]
# If more than one Log P value is available within the same method, all the values are given and separated by “+”.
# Lambda-max-values were determined using UV-spectra from 200 nm to 400 nm and the peak values of the chromatographic signals
row,SMILES,LogP
1,Cc1ccc(CC2CON=C(c3cc(Cl)ncc3Oc3cccc(Cl)c3)N2)c(C)c1 (racemic) [Compound I-002],4.51^[a]
2,Cc1ccc(CC2CON=C(c3c(Oc4cccc(C(F)(F)F)c4)cnc(Cl)c3I)N2)c(C)c1 (centres unmarked) [Compound I-077],4.66^[a]
3,COc1ccc(C2CCON=C(c3cc(Cl)ncc3Oc3cccc(C(F)(F)F)c3)N2)cc1 (centres unmarked) [Compound I-155],1.90^[a]
4,CC1ON=C(c2cc(Cl)ncc2Oc2cccc(C(F)(F)F)c2)NC1c1ccc(Cl)cc1 (mixture of isomers) [Compound I-042],4.19^[a]
5,Cc1ccc(CC2CON=C(c3cc(Cl)ncc3Oc3cccc(Br)c3F)N2)c(Cl)c1 (racemic) [Compound I-079],4.70^[a]
6,Cc1ccc(CC(CCNC(c2ccccc2)(c2ccccc2)c2ccccc2)NC(=O)c2cc(Cl)ncc2Oc2cccc(C(F)(F)F)c2)c(C)c1 (centres unmarked) [4-14],5.35^[a]
7,Cc1ccc(C2(C)NC(c3cc(Cl)ncc3Oc3cccc(C(F)(F)F)c3)=NO2)cc1 (racemic) [Compound I-109],4.59^[a]
8,COc1cccc(Oc2cnc(Cl)cc2C2=NOCC(Cc3ccc(C)cc3C)N2)c1 (racemic) [Compound I-005],4.18^[a]
9,O=C(O)c1cc(Cl)ncc1Oc1cccc(C(F)F)c1 [Compound 1-10],2.48^[a]
10,Cc1ccc(CC(CON2C(=O)c3ccccc3C2=O)NC(=O)OC(C)(C)C)c(Cl)c1 (centres unmarked) [Compound 2-05],4.41^[a]
11,Clc1ccc(CC2CON=C(c3cc(Cl)ncc3Oc3cccc(C4CC4)c3)N2)c(Cl)c1 (racemic) [Compound I-025],4.98^[a]
12,Cc1ccc(CC2CON=C(c3cc(C)ncc3Oc3cccc(Cl)c3F)N2)c(Cl)c1 (racemic) [Compound I-069],4.07^[a]
13,Cc1ccc(CC(CON2C(=O)c3ccccc3C2=O)NC(=O)c2cc(Cl)ncc2Oc2cccc(C(F)(F)F)c2)c(C)c1 (centres unmarked) [3-13],5.20^[a]
14,O=C(O)c1cc(Cl)nc(F)c1Oc1cccc(C(F)(F)F)c1 [Compound 1-14],2.95^[a]
15,Cc1ccc(CC2CON=C(c3cc(Cl)ncc3Oc3ccc4ccsc4c3)N2)c(C)c1 (racemic) [Compound I-119],4.59^[a]
16,Fc1cccc(Oc2cnc(Cl)cc2C2=NOCC(Cc3ccc(Cl)cc3Cl)N2)c1F (racemic) [Compound I-071],4.40^[a]
17,Cc1ccc(CC2CON=C(c3cc(Cl)ncc3Oc3cccc(C=O)c3)N2)c(C)c1 (racemic) [Compound I-085],3.64^[a]
18,Cc1ccc(CC2CON=C(c3cc(Cl)ncc3Oc3ccc4c(c3)OC(F)(F)O4)N2)c(C)c1 (racemic) [Compound I-114],4.65^[a]
19,Cc1ccc(CC2CON=C(c3cc(Cl)ncc3Oc3cccc(C4CC4)c3F)N2)c(Cl)c1 (racemic) [Compound I-066],5.04^[a]
20,Cc1ccc(CC(CCl)NC(=NO)c2c(Oc3cccc(C(F)(F)F)c3)cnc(Cl)c2F)c(C)c1 (centres unmarked) [16-01],5.74^[a]
21,Oc1cc(C2=NOCC(Cc3ccc(Br)cc3Cl)N2)c(Oc2cccc(C(F)F)c2)cn1 (centres unmarked) [Compound I-137],4.56^[a]
22,COc1cc(C(=O)O)c(Oc2cccc(C(F)(F)F)c2)cn1 [Compound 1-15],2.86^[a]
23,Cc1ccc(CC2CON=C(c3cc(C#C[Si](C)(C)C)ncc3Oc3cccc(C(F)(F)F)c3)N2)cc1 (racemic) [Compound I-060],5.53^[a]
24,Cc1ccc(CC(CON2C(=O)c3ccccc3C2=O)NC(=O)c2cc(Cl)ncc2Oc2cccc(C3CC3)c2F)c(C)c1 (centres unmarked) [3-06],5.38^[a]
25,Cc1ccc(CC2CON=C(c3cc(C)ncc3Oc3cccc(Cl)c3)N2)c(C)c1 (racemic) [Compound I-018],3.76^[a]
26,Cn1cc(-c2ccc(CC3CON=C(c4cc(Cl)ncc4Oc4cccc(C(F)F)c4)N3)c(Cl)c2)cn1 (racemic) [Compound I-037],3.37^[a]
27,"Cc1ccc(CC2CON=C(c3cc(Cl)ncc3Oc3cccc(Cl)c3)N2)c(C)c1 (single isomer, unassigned) [Compound I-011]",4.53^[a]

row,SMILES,LogP
1,Cc1ccc(CC2CON=C(c3cc(Cl)ncc3Oc3cccc(Cl)c3F)N2)c(Cl)c1 (racemic) [Compound I-087],4.66^[a]
2,COc1cccc(Oc2cnc(Cl)cc2C2=NOCC(Cc3ccc(C)cc3C)N2)c1F (centres unmarked) [Compound I-147],4.06^[a]
3,Cc1ccc(CC(CCl)NC(=O)c2cc(Cl)ncc2Oc2cccc(C(F)(F)F)c2)cc1 (centres unmarked) [14-03],5.00^[a]
4,CC(=O)c1cc(C2=NOCC(Cc3ccc(C)cc3)N2)c(Oc2cccc(C(F)(F)F)c2)cn1 (racemic) [Compound I-061],4.07^[a]
5,FC1ON=C(c2cc(Cl)ncc2Oc2cccc(C(F)(F)F)c2)NC1c1ccc(Cl)cc1 (mixture of isomers) [Compound I-051],3.33^[a]
6,Cc1ccc(CC(CCl)NC(=O)c2cc(Cl)nc(Cl)c2Oc2cccc(C(F)(F)F)c2)c(C)c1 (centres unmarked) [14-07],5.45^[a]
7,Cc1ccc(CC(CON)NC(=O)c2cc(Cl)ncc2Oc2cccc(C3CC3)c2F)c(C)c1 (centres unmarked) [4-06],3.72^[a]
8,Cc1ccc(CC2CON=C(c3cc(Cl)ncc3Oc3cccc(C4CC4)c3F)N2)c(C)c1 (racemic) [Compound I-014],4.89^[a]
9,CC(=O)Oc1cccc(Oc2cnc(Cl)cc2C2=NOCC(Cc3ccc(C)cc3C)N2)c1 (centres unmarked) [Compound I-134],3.90^[a]
10,Cc1ccc(CC2CON=C(c3cc(Cl)ncc3Oc3cccc(Cl)c3)N2)c(Cl)c1 (racemic) [Compound I-103],4.66^[a]
11,FC(F)(F)c1cccc(Oc2cnc(Cl)cc2C2=NOCC(c3ccc4ccccc4c3)N2)c1 (racemic) [Compound I-053],4.20^[a]
12,"Cc1ccc(CC2CON=C(c3cc(Cl)ncc3Oc3cccc(C4CC4)c3F)N2)c(C)c1 (single isomer, unassigned) [Compound I-021]",4.93^[a]
13,CCc1cccc(Oc2cnc(Cl)cc2C2=NOCC(Cc3ccc(C)cc3C)N2)c1 (racemic) [Compound I-092],5.04^[a]
14,COCCOc1c(Cl)ncc(Oc2cccc(C(F)(F)F)c2)c1C1=NOCC(Cc2ccc(C)cc2C)N1 (racemic) [Compound I-129],4.51^[a]
15,C#Cc1ccc(CC2CON=C(c3cc(Cl)ncc3Oc3cccc(C(F)(F)F)c3)N2)c(C)c1 (centres unmarked) [Compound I-156],4.08^[a]
16,Cc1ccc(CC2CON=C(c3cc(Cl)ncc3Oc3cnc4ccccc4c3)N2)c(C)c1 (racemic) [Compound I-093],3.65^[a]
17,Fc1c(Br)cccc1Oc1cnc(Cl)cc1C1=NOCC(Cc2ccc(Cl)cc2Cl)N1 (racemic) [Compound I-115],4.69^[a]
18,Clc1cc(C2=NOCC(Cc3ccc(Br)cc3Cl)N2)c(Oc2cccc(C3CC3)c2)cn1 (racemic) [Compound I-026],5.16^[a]
19,"Cc1ccc(CC2CON=C(c3cc(Cl)ncc3Oc3cccc(C4CC4)c3)N2)c(C)c1 (single isomer, unassigned) [Compound I-019]",4.89^[a]
20,COc1cc(C(=O)NC(CCl)Cc2ccc(C)cc2Cl)c(Br)cn1 (centres unmarked) [17-03],3.94^[a]
21,Cc1ccc(CC(CCl)NC(=NO)c2c(Oc3cccc(C(F)(F)F)c3)cnc(Cl)c2I)c(C)c1 (centres unmarked) [16-05],5.28^[a]
22,"Cc1ccc(CC2CON=C(c3cc(Cl)ncc3Oc3cccc(C4CC4)c3F)N2)c(C)c1 (single isomer, unassigned) [Compound I-022]",4.93^[a]
23,Cc1ccc(CC2CON=C(c3cc(Cl)ncc3Oc3cccc4c3CCC4)N2)c(C)c1 (racemic) [Compound I-116],5.14^[a]
24,O=C(NC(CON1C(=O)c2ccccc2C1=O)Cc1ccc(Cl)cc1Cl)c1cc(Cl)ncc1Oc1cccc(C2CC2)c1F (centres unmarked) [3-04],5.54^[a]
25,Cc1ccc(CC2CON=C(c3cc(Cl)nc(F)c3Oc3cccc(C(F)(F)F)c3)N2)c(C)c1 (racemic) [Compound I-082],4.97^[a]
26,C=C(OCC)c1cc(C(=O)OC)c(Oc2cccc(C(F)(F)F)c2)cn1 [Compound 1-05],4.70^[a]

# Same assay, conditions: Table 7, compounds of formula (3); method [a]
row,SMILES,chromatographic logP
1,"Cc1ccc(CC(CON2C(=O)c3ccccc3C2=O)NC(=O)c2cc(Cl)ncc2Oc2cccc(C(F)(F)F)c2)c(C)c1 (racemic) [Compound 3-01, 2-chloro-N-{(2RS)-1-(2,4-dimethylphenyl)-3-[(1,3-dioxo-1,3-dihydro-2H-isoindol-2-yl)oxy]propan-2-yl}-5-[3-(trifluoromethyl)phenoxy]isonicotinamide]",5.14

# Same assay, conditions: Table 9, compounds of formula (4a)/(4b); method [a]
row,SMILES,chromatographic logP
1,"Cc1ccc(CC(CON)NC(=O)c2cc(Cl)ncc2Oc2cccc(C(F)(F)F)c2)c(C)c1 (racemic) [Compound 4-01, N-[(2RS)-1-(aminooxy)-3-(2,4-dimethylphenyl)propan-2-yl]-2-chloro-5-[3-(trifluoromethyl)phenoxy]isonicotinamide]",3.48

# Same assay, conditions: Table 17, compounds of formula (10); method [a]: LC-UV, acidic range, 0.1% formic acid in water and acetonitrile
row,SMILES,chromatographic logP
1,"NC(=NO)c1cc(Cl)ncc1Oc1cccc(C(F)(F)F)c1 [Compound 10-01, 2-chloro-N′-hydroxy-5-[3-(trifluoromethyl)phenoxy]pyridine-4-carboximidamide]",2.41

# Same assay, conditions: Table 17, compounds of formula (12); method [a]; several values joined by + in some cells
row,SMILES,chromatographic logP
1,"COc1ccc(C(=O)C(F)(F)ON=C(N)c2cc(Cl)ncc2Oc2cccc(C(F)(F)F)c2)cc1 [Compound 12-09, 2-chloro-N′-[1,1-difluoro-2-(4-methoxyphenyl)-2-oxoethoxy]-5-[3-(trifluoromethyl)phenoxy]pyridine-4-carboximidamide]",3.65

# Same assay, conditions: Table 22, compounds of formula (17); method [a]
row,SMILES,chromatographic logP
1,"Cc1ccc(CC(CCl)NC(=O)c2ccncc2Br)cc1 (racemic) [Compound 17-01, 3-bromo-N-[(2RS)-1-chloro-3-(4-methylphenyl)propan-2-yl]isonicotinamide]",2.8

# Same assay, conditions: Table 24, compounds of formula (18); method [a]
row,SMILES,chromatographic logP
1,"Cc1ccc(CC(CCl)NC(=NO)c2ccncc2Br)cc1 (racemic) [Compound 18-01, 3-bromo-N-[(2RS)-1-chloro-3-(4-methylphenyl)propan-2-yl]-N′-hydroxypyridine-4-carboximidamide]",2.78
